In PubChem BioAssay AID248 (DTP/NCI, 2004):
Where “and” joins values, the source holds several entries; their conditions need not be identical. Identical values can stand only once. Inconclusive results and toxic doses are left out.

System: L1210 leukemia ip in BDF1 mice, survival T/C
Assay: NCI In Vivo Anticancer Drug Screen. Data for tumor model L1210 Leukemia (intraperitoneal) in B6D2F1 (BDF1) mice
Conditions: endpoint: mean survival time, higher = longer survival
How it was run: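 Each compound was tested against a transplantable tumor grown in mice. The endpoint was survival, with treated animals benchmarked against vehicle controls as a simple ratio.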

[1] = dose: 100.0 mg/kg/injection, schedule: Q04DX002 (ip), vehicle: other
[2] = dose: 200.0 mg/kg/injection, schedule: Q04DX002 (ip), vehicle: other
[3] = dose: 400.0 mg/kg/injection, schedule: Q04DX002 (ip), vehicle: other
[4] = dose: 100.0 mg/kg/injection, schedule: Q04DX003 (ip), vehicle: saline with Tween-80
[5] = dose: 200.0 mg/kg/injection, schedule: Q04DX003 (ip), vehicle: saline with Tween-80
[6] = dose: 400.0 mg/kg/injection, schedule: Q04DX003 (ip), vehicle: saline with Tween-80
[7] = dose: 100.0 mg/kg/injection, schedule: Q01DX001 (ip), vehicle: other
[8] = dose: 200.0 mg/kg/injection, schedule: Q01DX001 (ip), vehicle: other
[9] = dose: 400.0 mg/kg/injection, schedule: Q01DX001 (ip), vehicle: other
[10] = dose: 100.0 mg/kg/injection, schedule: Q01DX009 (ip), vehicle: saline with Tween-80
[11] = dose: 100.0 mg/kg/injection, schedule: Q04DX003 (ip), vehicle: saline
[12] = dose: 200.0 mg/kg/injection, schedule: Q04DX003 (ip), vehicle: saline
[13] = dose: 400.0 mg/kg/injection, schedule: Q04DX003 (ip), vehicle: saline
[14] = dose: 100.0 mg/kg/injection, schedule: Q01DX001 (ip), vehicle: saline
[15] = dose: 200.0 mg/kg/injection, schedule: Q01DX001 (ip), vehicle: saline
[16] = dose: 400.0 mg/kg/injection, schedule: Q01DX001 (ip), vehicle: saline
[17] = dose: 100.0 mg/kg/injection, schedule: Q01DX009 (ip), vehicle: Klucel (hydroxypropylcellulose) (HPC)
[18] = dose: 100.0 mg/kg/injection, schedule: Q04DX003 (ip), vehicle: Klucel (hydroxypropylcellulose) (HPC)
[19] = dose: 200.0 mg/kg/injection, schedule: Q01DX009 (ip), vehicle: Klucel (hydroxypropylcellulose) (HPC)
[20] = dose: 200.0 mg/kg/injection, schedule: Q04DX003 (ip), vehicle: Klucel (hydroxypropylcellulose) (HPC)
[21] = dose: 400.0 mg/kg/injection, schedule: Q01DX009 (ip), vehicle: Klucel (hydroxypropylcellulose) (HPC)
[22] = dose: 400.0 mg/kg/injection, schedule: Q04DX003 (ip), vehicle: Klucel (hydroxypropylcellulose) (HPC)
[23] = dose: 200.0 mg/kg/injection, schedule: Q01DX009 (ip), vehicle: saline with Tween-80
[24] = dose: 400.0 mg/kg/injection, schedule: Q01DX009 (ip), vehicle: saline with Tween-80

CCCCOc1c(OCCCC)c(=O)c1=O
T/C (dose: 178.0 mg/kg/injection, schedule: Q01DX001 (ip), vehicle: saline): 106 % of control
T/C (dose: 267.0 mg/kg/injection, schedule: Q01DX001 (ip), vehicle: saline): 106 % of control

CCCCCNS(=O)(=O)CCCC
T/C [1]: 111 % of control
T/C [2]: 96 % of control
T/C [3]: 103 % of control

O=Cc1ccc(C=O)cc1
T/C [4]: 94 % of control
T/C [5]: 105 % of control
T/C [6]: 106 % of control

COC(=O)c1cc2nc(C(C)C)n(Cc3ccccc3)c2cc1C(=O)OC
T/C [7]: 99 % of control
T/C (dose: 100.0 mg/kg/injection, schedule: Q01DX009 (ip), vehicle: other): 104 % of control and 87 % of control
T/C (dose: 100.0 mg/kg/injection, schedule: Q04DX002 (ip), vehicle: Klucel (hydroxypropylcellulose) (HPC)): 105 % of control
T/C [1]: 102 % of control and 91 % of control
T/C (dose: 100.0 mg/kg/injection, schedule: Q04DX003 (ip), vehicle: other): 107 % of control
T/C [8]: 100 % of control
T/C (dose: 200.0 mg/kg/injection, schedule: Q01DX009 (ip), vehicle: other): 101 % of control and 90 % of control
T/C (dose: 200.0 mg/kg/injection, schedule: Q04DX002 (ip), vehicle: Klucel (hydroxypropylcellulose) (HPC)): 98 % of control
T/C [2]: 95 % of control and 108 % of control
T/C (dose: 200.0 mg/kg/injection, schedule: Q04DX003 (ip), vehicle: other): 109 % of control
T/C [9]: 89 % of control
T/C (dose: 400.0 mg/kg/injection, schedule: Q01DX009 (ip), vehicle: other): 97 % of control and 106 % of control
T/C (dose: 400.0 mg/kg/injection, schedule: Q04DX002 (ip), vehicle: Klucel (hydroxypropylcellulose) (HPC)): 102 % of control
T/C [3]: 95 % of control and 107 % of control
T/C (dose: 400.0 mg/kg/injection, schedule: Q04DX003 (ip), vehicle: other): 105 % of control

Oc1c(C(c2ccccc2)N2CCCC2)ccc2ccccc12 (configuration not stated)
T/C (dose: 75.0 mg/kg/injection, schedule: Q04DX003 (ip), vehicle: saline with Tween-80): 100 % of control
T/C (dose: 150.0 mg/kg/injection, schedule: Q04DX003 (ip), vehicle: saline with Tween-80): 92 % of control
T/C (dose: 300.0 mg/kg/injection, schedule: Q04DX003 (ip), vehicle: saline with Tween-80): 96 % of control

C(=N\Nc1nn[nH]n1)/c1ccccc1
T/C [10]: 202 % of control
T/C [4]: 95 % of control
T/C [5]: 97 % of control
T/C [6]: 103 % of control

O=C1CCCC(=S)N1
T/C (dose: 50.0 mg/kg/injection, schedule: Q01DX001 (ip), vehicle: carboxymethylcellulose (CMC)): 113 % of control
T/C (dose: 100.0 mg/kg/injection, schedule: Q01DX001 (ip), vehicle: carboxymethylcellulose (CMC)): 106 % of control

C[C@]12CC[C@@H]3c4ccc(O)cc4CC[C@H]3[C@@H]1CCC(=O)O2
T/C (dose: 100.0 mg/kg/injection, schedule: Q01DX009 (ip), vehicle: saline): 97 % of control
T/C [11]: 97 % of control
T/C (dose: 200.0 mg/kg/injection, schedule: Q01DX009 (ip), vehicle: saline): 95 % of control
T/C [12]: 90 % of control
T/C (dose: 400.0 mg/kg/injection, schedule: Q01DX009 (ip), vehicle: saline): 95 % of control
T/C [13]: 100 % of control

COc1ccc2c(c1)C1(C)CCCC(C)(C(=O)O)C1C(Br)C2=O (configuration not stated)
T/C [14]: 104 % of control
T/C [15]: 101 % of control
T/C [16]: 102 % of control

CCOC(=O)C(C(=O)OCC)C1C=CCC1 (configuration not stated)
T/C [17]: 104 % of control
T/C [18]: 98 % of control
T/C [19]: 96 % of control
T/C [20]: 97 % of control
T/C [21]: 91 % of control
T/C [22]: 108 % of control

CN(O)C(=O)OC(C)(C)C
T/C [7]: 108 % of control
T/C [8]: 108 % of control
T/C [9]: 114 % of control

COc1cccc(CO)c1-c1c(CO)cccc1OC
T/C [11]: 95 % of control
T/C [12]: 97 % of control
T/C [13]: 97 % of control

O=C(NC(CO)C(O)c1ccc(N=Nc2cccc3ccccc23)cc1)C(Cl)Cl (configuration not stated)
T/C [4]: 101 % of control
T/C [5]: 95 % of control
T/C [6]: 93 % of control

CC(=O)Nc1cccc2c1C(=O)OC2=O
T/C [10]: 105 % of control
T/C [4]: 102 % of control
T/C [23]: 89 % of control
T/C [5]: 99 % of control
T/C [24]: 93 % of control
T/C [6]: 94 % of control

COC(=O)C1C2CC3C(OC(=O)C31C)C2I (configuration not stated)
T/C [14]: 90 % of control
T/C [15]: 107 % of control
T/C [16]: 110 % of control

O=C(NCCCl)Nc1c2ccccc2nc2ccccc12
T/C [17]: 97 % of control
T/C [18]: 103 % of control
T/C [19]: 89 % of control
T/C [20]: 103 % of control
T/C [22]: 104 % of control

O=P(O)(O)Cc1c(Cl)c(Cl)c(CP(=O)(O)O)c(Cl)c1Cl
T/C [14]: 107 % of control
T/C [15]: 104 % of control
T/C [16]: 104 % of control

Oc1c(Cl)cc(N=Cc2ccc(N(CCCCl)CCCCl)cc2)cc1Cl
T/C [18]: 101 % of control
T/C [20]: 101 % of control
T/C [22]: 102 % of control

CN(C)O
T/C [10]: 103 % of control
T/C [23]: 105 % of control
T/C (dose: 222.0 mg/kg/injection, schedule: Q01DX Z (ip), vehicle: saline): 100 % of control
T/C (dose: 333.0 mg/kg/injection, schedule: Q01DX Z (ip), vehicle: saline): 97 % of control
T/C [24]: 108 % of control
T/C (dose: 500.0 mg/kg/injection, schedule: Q01DX Z (ip), vehicle: saline): 106 % of control

CC(=O)OC1CC2CC(C1C)C2(C)C (configuration not stated)
T/C (dose: 12.5 mg/kg/injection, schedule: Q01DX009 (ip), vehicle: saline with Tween-80): 105 % of control
T/C (dose: 25.0 mg/kg/injection, schedule: Q01DX009 (ip), vehicle: saline with Tween-80): 91 % of control
T/C (dose: 50.0 mg/kg/injection, schedule: Q01DX009 (ip), vehicle: saline with Tween-80): 100 % of control

CCCCOB(OCCCC)c1ccc(SC)cc1
T/C (dose: 100.0 mg/kg/injection, schedule: Q04DX003 (ip), vehicle: alcohol): 111 % of control
T/C (dose: 200.0 mg/kg/injection, schedule: Q04DX003 (ip), vehicle: alcohol): 103 % of control
T/C (dose: 400.0 mg/kg/injection, schedule: Q04DX003 (ip), vehicle: alcohol): 118 % of control

Cc1ccc(S(=O)(=O)Nc2cccc3c(NS(=O)(=O)c4ccc(C)cc4)cccc23)cc1
T/C [10]: 96 % of control
T/C [23]: 94 % of control
T/C [24]: 100 % of control

O=C1Cc2ccccc2C(=O)N1Nc1ccccc1
T/C (dose: 22.0 mg/kg/injection, schedule: Q01DX001 (ip), vehicle: saline): 96 % of control
T/C (dose: 33.0 mg/kg/injection, schedule: Q01DX001 (ip), vehicle: saline): 91 % of control
T/C (dose: 50.0 mg/kg/injection, schedule: Q01DX001 (ip), vehicle: saline): 93 % of control and 101 % of control
T/C (dose: 75.0 mg/kg/injection, schedule: Q01DX001 (ip), vehicle: saline): 95 % of control
T/C [14]: 101 % of control
T/C [15]: 95 % of control
T/C [16]: 95 % of control

COC(=O)/C=C(\C)Nc1ccc(Cc2ccc(NC(C)=O)cc2)cc1
T/C [14]: 95 % of control
T/C [15]: 98 % of control

O=C(Nc1ccc(Cl)c(Cl)c1)OCC1CC2C=CC1C2 (configuration not stated)
T/C [17]: 100 % of control
T/C [19]: 97 % of control
T/C [21]: 106 % of control

CN(C)/N=N\c1nc[nH]c1C(=O)N1CCCC1
T/C (dose: 100.0 mg/kg/injection, schedule: Q01DX001 (ip), vehicle: saline with Tween-80): 100 % of control
T/C (dose: 200.0 mg/kg/injection, schedule: Q01DX001 (ip), vehicle: saline with Tween-80): 105 % of control
T/C [23]: 150 % of control and 206 % of control
T/C (dose: 400.0 mg/kg/injection, schedule: Q01DX001 (ip), vehicle: saline with Tween-80): 111 % of control
